ChEMBL document CHEMBL5338773, “First-in-Class Selective Inhibitors of the Lysine Acetyltransferase KAT8” (J Med Chem, 2023)
The source made the active and inactive calls. No cut-off for these calls is given here.

Tests used:
[1] = target: T1, Histone acetyltransferase KAT8 (Homo sapiens) (UniProt Q9H7Z6); assay: Inhibition of human KAT8 in human HT-29 cells assessed as change in KAT8 expression level at 10 to 50 uM incubated for 24 hrs by Western blot analysis; assay type: cell-based; details: dose 10-50 µM
T1 sequence (whole entry): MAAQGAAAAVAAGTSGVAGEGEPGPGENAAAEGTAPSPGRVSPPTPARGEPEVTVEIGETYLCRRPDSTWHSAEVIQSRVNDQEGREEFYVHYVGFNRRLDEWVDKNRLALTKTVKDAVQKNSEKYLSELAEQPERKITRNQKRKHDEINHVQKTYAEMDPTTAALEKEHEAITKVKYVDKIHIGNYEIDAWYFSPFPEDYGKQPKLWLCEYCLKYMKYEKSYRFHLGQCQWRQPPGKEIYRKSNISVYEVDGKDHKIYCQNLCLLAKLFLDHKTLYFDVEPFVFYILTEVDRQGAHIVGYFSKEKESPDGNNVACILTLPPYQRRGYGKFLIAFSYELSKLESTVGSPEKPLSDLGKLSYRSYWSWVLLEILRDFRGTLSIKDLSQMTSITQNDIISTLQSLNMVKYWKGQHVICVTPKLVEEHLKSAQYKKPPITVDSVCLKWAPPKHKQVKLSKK

[2] = target: Histone deacetylase 3 (Homo sapiens) (UniProt O15379); assay: Inhibition of human recombinant KDAC3 using Boc-Lys-(Ac)-AMC as substrate at 50 to 100 uM incubated for 45 mins by fluorescence microplate reader analysis; details: dose 50-100 µM
Chain of Histone deacetylase 3 (Homo sapiens) (O15379 whole entry): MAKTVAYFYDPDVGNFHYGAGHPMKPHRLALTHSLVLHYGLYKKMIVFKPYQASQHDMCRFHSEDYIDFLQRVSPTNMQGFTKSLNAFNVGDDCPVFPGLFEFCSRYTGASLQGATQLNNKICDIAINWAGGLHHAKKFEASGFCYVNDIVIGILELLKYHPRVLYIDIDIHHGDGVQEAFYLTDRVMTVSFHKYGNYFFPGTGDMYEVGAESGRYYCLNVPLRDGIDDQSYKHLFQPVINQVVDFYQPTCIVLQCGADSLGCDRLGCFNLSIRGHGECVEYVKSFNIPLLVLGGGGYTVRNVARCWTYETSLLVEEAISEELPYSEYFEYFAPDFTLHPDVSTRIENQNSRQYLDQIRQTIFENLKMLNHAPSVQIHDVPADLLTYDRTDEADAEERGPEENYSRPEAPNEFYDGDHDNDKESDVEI

[3] = system: HCT-116; assay: Induction of apoptosis in human HCT-116 cells assessed as slight increase in apoptotic cells at 50 to 100 uM incubated for 72 hrs by Annexin V-FITC staining based flow cytometry; assay type: functional, cell-based; details: dose 50-100 µM
[4] = system: HT-29; assay: Induction of apoptosis in human HT-29 cells assessed as slight increase in apoptotic cells at 50 to 100 uM incubated for 72 hrs by Annexin V-FITC staining based flow cytometry; assay type: functional, cell-based; details: dose 50-100 µM
[5] = Cytotoxicity against human primary lung fibroblast assessed as inhibition of cell viability at 25 to 200 uM incubated for 72 hrs by MTT assay; assay type: toxicity, cell-based; details: dose 25-200 µM
[6] = target: T1, Histone acetyltransferase KAT8 (Homo sapiens); assay: Binding affinity to KAT8 in human HT-29 cells at 59 degreeC at 100 nM incubated for 4 hrs by […] analysis; assay type: cell-based
[7] = system: A549; assay: Antiproliferative activity against human A549 cells assessed as cell proliferation inhibition at 10 to 100 uM incubated for 72 hrs by MTT assay; assay type: functional, cell-based; details: dose 10-100 µM
[8] = system: HT-29; assay: Antiproliferative activity against human HT-29 cells assessed as cell proliferation inhibition at 10 to 100 uM incubated for 72 hrs by MTT assay; assay type: functional, cell-based; details: dose 10-100 µM
[9] = system: NCI-H1299; assay: Induction of autophagy in human NCI-H1299 cells stably expressing EGFP-LC3 assessed as change in LC3-II/LC3-I ratio at 10 to 100 uM incubated for 48 hrs by Western blot analysis; assay type: functional, cell-based; details: dose 10-100 µM
[10] = target: T1, Histone acetyltransferase KAT8 (Homo sapiens); assay: Reversible inhibition of N-terminal 6His tagged KAT8 (173 to 458 residues) (unknown origin) expressed in Escherichia coli BL21(DE3) using biotinylated histone H4 peptide and [3H]Acetyl-CoA as substrates at 10XIC50 preincubated for 30 mins followed by dilution and substrate addition and measured upto 240 mins by MicroBeta microplate counter analysis; details: time 270.0 min
[11] = system: HT-29; assay: Effect on cell cycle progression in human HT-29 cells assessed as changes in cell cycle stages at 50 to 100 uM incubated for 72 hrs by PI-staining based flow cytometry; assay type: functional; details: dose 50-100 µM
[12] = system: NCI-H1299; assay: Induction of autophagy in human NCI-H1299 cells stably expressing EGFP-LC3 assessed as increase in EGFP-LC3 puncta formation at 10 to 100 uM incubated for 48 hrs by Fluorescence microscopy; assay type: functional, cell-based; details: dose 10-100 µM
[13] = system: HeLa; assay: Induction of apoptosis in human HeLa cells assessed as slight increase in apoptotic cells at 50 to 100 uM incubated for 72 hrs by Annexin V-FITC staining based flow cytometry; assay type: functional, cell-based; details: dose 50-100 µM
[14] = system: U-251; assay: Antiproliferative activity against human U-251 cells assessed as cell proliferation inhibition at 10 to 100 uM incubated for 72 hrs by MTT assay; assay type: functional, cell-based; details: dose 10-100 µM
[15] = system: HCT-116; assay: Induction of apoptosis in human HCT-116 cells assessed as increase in apoptotic cells at 100 uM incubated for 72 hrs in presence of chloroquine by Annexin V-FITC staining based flow cytometry; assay type: functional, cell-based
[16] = target: Histone acetyltransferase p300 (Homo sapiens) (UniProt Q09472); assay: Inhibition of recombinant human KAT3B (1287 to 1673 residues) using histone H3 peptide and [3H]-acetyl-coA as substrates at 200 uM incubated for 1 hrs by liquid scintillation counter analysis
Chain of Histone acetyltransferase p300 (Homo sapiens) (Q09472 whole entry, the tested form may be a part): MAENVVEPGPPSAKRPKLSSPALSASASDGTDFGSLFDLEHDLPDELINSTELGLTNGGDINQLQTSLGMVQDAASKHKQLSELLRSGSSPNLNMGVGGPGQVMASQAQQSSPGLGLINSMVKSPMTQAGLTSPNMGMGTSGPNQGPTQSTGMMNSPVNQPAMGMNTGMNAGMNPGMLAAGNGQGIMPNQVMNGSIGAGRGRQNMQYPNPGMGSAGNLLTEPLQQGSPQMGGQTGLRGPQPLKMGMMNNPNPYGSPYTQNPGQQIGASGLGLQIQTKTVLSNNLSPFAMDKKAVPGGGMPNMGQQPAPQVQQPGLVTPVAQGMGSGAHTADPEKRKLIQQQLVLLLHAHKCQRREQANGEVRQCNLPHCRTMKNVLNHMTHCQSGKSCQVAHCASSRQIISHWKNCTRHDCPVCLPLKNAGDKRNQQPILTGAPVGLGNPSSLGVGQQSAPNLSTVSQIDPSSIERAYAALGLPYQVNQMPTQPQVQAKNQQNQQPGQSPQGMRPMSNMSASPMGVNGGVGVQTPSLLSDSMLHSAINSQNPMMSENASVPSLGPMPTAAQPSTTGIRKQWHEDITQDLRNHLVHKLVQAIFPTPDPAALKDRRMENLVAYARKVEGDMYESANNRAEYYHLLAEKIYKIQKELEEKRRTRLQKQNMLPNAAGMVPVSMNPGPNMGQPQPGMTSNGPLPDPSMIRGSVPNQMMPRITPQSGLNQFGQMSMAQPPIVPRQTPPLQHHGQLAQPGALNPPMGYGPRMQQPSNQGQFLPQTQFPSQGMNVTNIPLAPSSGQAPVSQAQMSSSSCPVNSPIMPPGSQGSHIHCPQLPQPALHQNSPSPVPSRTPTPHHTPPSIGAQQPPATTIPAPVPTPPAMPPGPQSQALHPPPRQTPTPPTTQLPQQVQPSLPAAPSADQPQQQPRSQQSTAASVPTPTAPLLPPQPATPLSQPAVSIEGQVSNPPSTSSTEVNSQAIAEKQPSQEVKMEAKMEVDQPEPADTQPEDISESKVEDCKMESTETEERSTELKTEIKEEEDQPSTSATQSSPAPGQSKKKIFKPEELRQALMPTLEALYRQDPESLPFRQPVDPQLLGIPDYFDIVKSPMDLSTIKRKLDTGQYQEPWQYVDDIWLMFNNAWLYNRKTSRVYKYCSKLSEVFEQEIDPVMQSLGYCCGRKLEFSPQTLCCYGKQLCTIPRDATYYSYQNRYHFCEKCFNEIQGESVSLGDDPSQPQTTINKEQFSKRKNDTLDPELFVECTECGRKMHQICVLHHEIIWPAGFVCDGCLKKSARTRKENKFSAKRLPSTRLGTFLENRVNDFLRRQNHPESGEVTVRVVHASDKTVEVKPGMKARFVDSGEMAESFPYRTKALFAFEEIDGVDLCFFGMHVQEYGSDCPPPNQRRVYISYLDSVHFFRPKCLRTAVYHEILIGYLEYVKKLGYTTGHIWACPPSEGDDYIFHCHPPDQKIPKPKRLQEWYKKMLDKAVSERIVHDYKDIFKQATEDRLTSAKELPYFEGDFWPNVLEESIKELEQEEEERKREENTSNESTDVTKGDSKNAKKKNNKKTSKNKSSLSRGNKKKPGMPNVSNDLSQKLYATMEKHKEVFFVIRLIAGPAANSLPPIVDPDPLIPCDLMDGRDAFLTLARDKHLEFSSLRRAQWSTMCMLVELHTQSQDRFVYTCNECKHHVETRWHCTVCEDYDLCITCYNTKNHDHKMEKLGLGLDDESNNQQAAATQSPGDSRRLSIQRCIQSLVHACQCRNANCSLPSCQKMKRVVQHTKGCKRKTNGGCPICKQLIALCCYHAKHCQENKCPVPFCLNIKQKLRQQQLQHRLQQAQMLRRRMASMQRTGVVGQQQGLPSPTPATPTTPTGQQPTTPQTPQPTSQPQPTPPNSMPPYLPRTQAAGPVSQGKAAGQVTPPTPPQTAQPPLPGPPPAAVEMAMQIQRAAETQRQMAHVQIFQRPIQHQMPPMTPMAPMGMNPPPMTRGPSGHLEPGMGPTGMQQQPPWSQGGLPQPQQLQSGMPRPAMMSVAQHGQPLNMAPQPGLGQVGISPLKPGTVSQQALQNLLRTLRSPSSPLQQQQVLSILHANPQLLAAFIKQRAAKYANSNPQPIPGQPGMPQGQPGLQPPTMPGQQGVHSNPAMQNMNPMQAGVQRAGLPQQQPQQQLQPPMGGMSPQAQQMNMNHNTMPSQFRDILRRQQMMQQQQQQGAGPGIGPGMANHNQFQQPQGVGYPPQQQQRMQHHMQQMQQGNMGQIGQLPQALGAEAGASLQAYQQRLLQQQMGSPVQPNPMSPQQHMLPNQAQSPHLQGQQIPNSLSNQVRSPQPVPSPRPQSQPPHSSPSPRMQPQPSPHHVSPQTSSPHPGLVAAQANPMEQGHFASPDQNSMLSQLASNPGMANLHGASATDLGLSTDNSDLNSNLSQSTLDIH

[17] = species: Homo sapiens; assay: Inhibition of human recombinant KDAC1 using Boc-Lys-(Ac)-AMC as substrate at 50 to 100 uM incubated for 45 mins by fluorescence microplate reader analysis; details: dose 50-100 µM
[18] = target: T1, Histone acetyltransferase KAT8 (Homo sapiens); assay: Binding affinity to KAT8 in human HT-29 cells assessed as stabilization of enzyme against thermal induced aggregation at 59 degreeC at 100 nM incubated for 4 hrs by Western blot analysis; assay type: cell-based
[19] = target: T1, Histone acetyltransferase KAT8 (Homo sapiens); assay: Inhibition of human KAT8 in human HT-29 cells assessed as change in histone H3K27 acetylation level by measuring fluorescence intensity in nucleus at 50 uM incubated for 24 hrs by DAPI staining based immunofluorescence analysis; assay type: cell-based
[20] = Thiol reactivity of compound at pH 7.5 buffer at 0.5 mM and measured upto 24 hrs in presence of DTT and BME by HPLC analysis; assay type: physicochemical; details: pH 7.5, 24 h, 500 µM
[21] = system: NCI-H1299; assay: Induction of autophagy in human NCI-H1299 cells stably expressing EGFP-LC3 assessed as increase in autophagosome formation by measuring fluorescence spots at 10 to 100 uM incubated for 48 hrs by Fluorescence microscopy; assay type: functional, cell-based; details: dose 10-100 µM
[22] = system: HeLa; assay: Induction of cell cycle arrest in human HeLa cells assessed as increase in number of cells at sub-G1 phase with DNA hypodiploid at 50 uM incubated for 72 hrs by PI-staining based flow cytometry (Rvb=2%); assay type: functional
[23] = system: HeLa; assay: Antiproliferative activity against human HeLa cells assessed as cell proliferation inhibition at 10 to 100 uM incubated for 72 hrs by MTT assay; assay type: functional, cell-based; details: dose 10-100 µM
[24] = system: NCI-H1299; assay: Induction of autophagy in human NCI-H1299 cells stably expressing EGFP-LC3 assessed as increase in p62 expression level at 10 to 100 uM incubated for 48 hrs by Western blot analysis; assay type: functional, cell-based; details: dose 10-100 µM
[25] = system: HCT-116; assay: Effect on cell cycle progression in human HCT-116 cells assessed as changes in cell cycle stages at 50 to 100 uM incubated for 72 hrs by PI-staining based flow cytometry; assay type: functional; details: dose 50-100 µM
[26] = target: Histone deacetylase 2 (Homo sapiens) (UniProt Q92769); assay: Inhibition of human recombinant KDAC2 using Boc-Lys-(Ac)-AMC as substrate at 50 to 100 uM incubated for 45 mins by fluorescence microplate reader analysis; details: dose 50-100 µM
Chain of Histone deacetylase 2 (Homo sapiens) (Q92769 whole entry, the tested form may be a part): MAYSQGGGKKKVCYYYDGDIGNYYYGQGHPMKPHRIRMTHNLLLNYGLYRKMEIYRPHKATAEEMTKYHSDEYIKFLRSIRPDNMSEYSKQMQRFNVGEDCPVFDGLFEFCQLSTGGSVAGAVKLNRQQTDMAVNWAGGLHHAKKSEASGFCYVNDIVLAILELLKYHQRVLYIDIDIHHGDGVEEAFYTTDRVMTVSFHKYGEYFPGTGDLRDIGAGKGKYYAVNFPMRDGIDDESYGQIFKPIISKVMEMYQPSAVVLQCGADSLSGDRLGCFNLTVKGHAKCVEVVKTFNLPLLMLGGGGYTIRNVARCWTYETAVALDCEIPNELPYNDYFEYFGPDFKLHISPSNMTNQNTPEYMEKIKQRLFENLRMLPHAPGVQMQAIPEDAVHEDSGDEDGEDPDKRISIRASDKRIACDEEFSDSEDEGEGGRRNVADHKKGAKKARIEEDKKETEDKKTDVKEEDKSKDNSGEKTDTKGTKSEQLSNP

[27] = target: Histone acetyltransferase KAT2B (Homo sapiens) (UniProt Q92831); assay: Inhibition of recombinant human KAT2B (492 to 658 residues) using histone H3 peptide and [3H]-acetyl-coA as substrates at 200 uM incubated for 1 hrs by liquid scintillation counter analysis
Chain of Histone acetyltransferase KAT2B (Homo sapiens) (Q92831 whole entry, looked up, the tested form may be a part): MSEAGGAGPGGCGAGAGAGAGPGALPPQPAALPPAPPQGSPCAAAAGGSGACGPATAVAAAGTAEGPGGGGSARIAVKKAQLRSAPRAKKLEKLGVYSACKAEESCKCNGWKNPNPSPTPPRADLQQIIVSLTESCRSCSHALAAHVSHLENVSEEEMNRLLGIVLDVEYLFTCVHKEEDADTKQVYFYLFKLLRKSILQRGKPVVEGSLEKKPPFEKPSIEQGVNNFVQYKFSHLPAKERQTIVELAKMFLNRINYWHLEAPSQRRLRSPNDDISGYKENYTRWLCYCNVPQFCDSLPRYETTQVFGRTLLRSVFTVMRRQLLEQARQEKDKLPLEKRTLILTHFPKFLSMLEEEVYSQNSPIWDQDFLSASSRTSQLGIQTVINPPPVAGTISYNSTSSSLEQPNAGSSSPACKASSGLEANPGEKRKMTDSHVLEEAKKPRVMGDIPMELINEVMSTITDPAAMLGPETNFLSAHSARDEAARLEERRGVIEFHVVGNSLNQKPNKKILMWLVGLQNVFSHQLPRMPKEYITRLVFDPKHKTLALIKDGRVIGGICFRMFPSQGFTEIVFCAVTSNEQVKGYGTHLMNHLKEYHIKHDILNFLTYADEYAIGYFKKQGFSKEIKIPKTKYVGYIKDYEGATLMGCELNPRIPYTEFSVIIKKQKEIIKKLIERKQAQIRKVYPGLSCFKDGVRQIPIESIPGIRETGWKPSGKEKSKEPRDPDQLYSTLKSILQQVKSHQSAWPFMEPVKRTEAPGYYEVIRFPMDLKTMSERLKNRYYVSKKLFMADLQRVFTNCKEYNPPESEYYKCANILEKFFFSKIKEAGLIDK

SMILES | inhibition [1] | inhibition [2] | Activity [3] | Activity [4] | Activity [5] | Activity [6] | Activity [7] | Activity [8] | Activity [9] | inhibition [10] | Activity [11] | Activity [12] | Activity [13] | Activity [14] | Activity [15] | inhibition [16] | inhibition [17] | Activity [18] | inhibition [19] | Drug metabolism [20] | further results
CC1=NN(c2ccc(C(=O)O)cc2)C(=O)/C1=C\c1ccc[nH]1 | inactive | inactive | Active | Active | Non-Toxic | Active | Dose-Dependent Effect | Active | Active | Active | inactive | Active | Active | inactive | Active | inactive | inactive | Active | inactive | Not Active | Activity [21]: Active; Activity [22]: 2%; Activity [23]: Active; Activity [24]: Active; Activity [25]: inactive; inhibition [26]: inactive; inhibition [27]: inactive
O=C(O)c1ccc(N2N=C(c3ccccc3)/C(=C/c3ccc[nH]3)C2=O)cc1 | inactive | inactive | Active | Active | Non-Toxic | Active | Dose-Dependent Effect | Active | Active | Active | inactive | Active | Active | inactive | Active | inactive | inactive | Active | inactive | Not Active | Activity [21]: Active; Activity [22]: 2%; Activity [23]: Active; Activity [24]: Active; Activity [25]: inactive; inhibition [26]: inactive; inhibition [27]: inactive
